Data on 24 compounds can be found in patent publication US20160176880A1, “SUBSTITUTED IMIDAZO[1,2-A]PYRAZINECARBOXAMIDES AND USE THEREOF” (BAYER PHARMA AKTIENGESELLSCHAFT, priority 2013, published 2016).

The assay addresses T1, recombinant guanylate cyclase reporter cell line (Rattus norvegicus, UniProt P19686+P20595).
T1 construct: expressed in transfected cells
T1 sequence (P19686 1-690): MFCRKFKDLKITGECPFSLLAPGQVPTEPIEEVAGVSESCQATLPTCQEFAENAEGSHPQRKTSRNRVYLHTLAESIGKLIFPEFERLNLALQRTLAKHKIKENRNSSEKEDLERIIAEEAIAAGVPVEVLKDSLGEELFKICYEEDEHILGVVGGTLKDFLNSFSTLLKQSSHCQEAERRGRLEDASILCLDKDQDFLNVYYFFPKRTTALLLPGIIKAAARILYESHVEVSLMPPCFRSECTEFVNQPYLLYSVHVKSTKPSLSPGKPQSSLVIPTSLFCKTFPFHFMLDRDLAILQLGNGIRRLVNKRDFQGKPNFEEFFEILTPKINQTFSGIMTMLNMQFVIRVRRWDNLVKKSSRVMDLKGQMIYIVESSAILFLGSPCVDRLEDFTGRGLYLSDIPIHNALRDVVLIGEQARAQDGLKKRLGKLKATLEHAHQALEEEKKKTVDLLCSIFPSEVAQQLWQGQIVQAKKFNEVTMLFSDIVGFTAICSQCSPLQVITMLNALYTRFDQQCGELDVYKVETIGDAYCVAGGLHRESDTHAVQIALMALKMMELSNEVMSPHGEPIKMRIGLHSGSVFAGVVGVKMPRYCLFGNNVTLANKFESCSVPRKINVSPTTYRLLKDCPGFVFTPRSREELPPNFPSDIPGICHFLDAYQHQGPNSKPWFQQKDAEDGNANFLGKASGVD
T1 sequence (P20595 1-619): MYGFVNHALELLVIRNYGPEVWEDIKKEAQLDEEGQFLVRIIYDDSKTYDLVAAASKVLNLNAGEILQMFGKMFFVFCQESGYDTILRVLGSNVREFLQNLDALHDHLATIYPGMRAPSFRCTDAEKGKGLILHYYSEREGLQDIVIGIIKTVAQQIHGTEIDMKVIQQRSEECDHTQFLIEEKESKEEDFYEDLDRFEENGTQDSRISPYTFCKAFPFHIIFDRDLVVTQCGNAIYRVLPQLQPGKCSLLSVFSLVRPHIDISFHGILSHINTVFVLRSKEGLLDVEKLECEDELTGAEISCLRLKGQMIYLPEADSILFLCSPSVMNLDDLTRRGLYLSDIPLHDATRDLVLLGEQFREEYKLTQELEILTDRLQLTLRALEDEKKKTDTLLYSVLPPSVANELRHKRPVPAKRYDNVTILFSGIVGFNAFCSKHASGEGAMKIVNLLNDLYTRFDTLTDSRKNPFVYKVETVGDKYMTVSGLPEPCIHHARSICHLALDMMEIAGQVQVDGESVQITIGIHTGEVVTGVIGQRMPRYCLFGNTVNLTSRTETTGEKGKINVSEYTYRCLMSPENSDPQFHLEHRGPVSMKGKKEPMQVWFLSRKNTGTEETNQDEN
Briefly: Effect on a recombinant guanylate cyclase reporter cell line. The following applies: MEC = minimum effective concentration; in some cases mean values for individual determinations. Type of assay: cell-based. The protocol:
B-2. Effect on a Recombinant Guanylate Cyclase Reporter Cell Line
The cellular action of the compounds of the invention is determined using a recombinant guanylate cyclase reporter cell line, as described in F. Wunder et al., Anal. Biochem. 339, 104-112 (2005).
Representative MEC values (MEC=minimum effective concentration) for the compounds of the invention are shown in the table below (in some cases as mean values for individual determinations): […]

Structures can show the parent of a compound that is named as a salt.

As to `Cc1cn2c(C(=O)NC3CC4CCCC(C3)N4C)c(C)nc2c(OCc2c(F)cccc2F)n1` (stereo not drawn) [Example 36, 8-[(2,6-difluorobenzyl)oxy]-2,6-dimethyl-N-(9-methyl-9-azabicyclo[3.3.1]non-3-yl)imidazo[1,2-a]pyrazine-3-carboxamide], the MEC came to 1 µM.

On to `Cc1cn2c(C(=O)NC[C@H]3CC[C@H](C(=O)O)CC3)c(C)nc2c(OCc2c(F)cccc2F)n1.Cl` [Example 11, trans-4-{[({8-[(2,6-Difluorobenzyl)oxy]-2,6-dimethylimidazo[1,2-a]pyrazin-3-yl}carbonyl)amino]methyl}cyclohexanecarboxylic acid hydrochloride], for which the MEC amounted to 3 µM.

In the case of `Cc1cn2c(C(=O)Nc3c(C)nn(CCO)c3C)c(C)nc2c(OCc2c(F)cccc2F)n1` [Example 18, 8-[(2,6-difluorobenzyl)oxy]-N-[1-(2-hydroxyethyl)-3,5-dimethyl-1H-pyrazol-4-yl]-2,6-dimethylimidazo[1,2-a]pyrazine-3-carboxamide], the MEC came to 3 µM.

Take `Cc1cn2c(C(=O)NCCN(CC(F)F)C3CC3)c(C)nc2c(OCc2c(F)cccc2F)n1` [Example 33, N-{2-[cyclopropyl(2,2-difluoroethyl)amino]ethyl}-8-[(2,6-difluorobenzyl)oxy]-2,6-dimethylimidazo[1,2-a]pyrazine-3-carboxamide]: the MEC was found to be 3 µM.

Take `Cc1cn2c(C(=O)NC(C#N)c3ccc(Cl)cc3)c(C)nc2c(OCc2c(F)cccc2F)n1` (racemic) [Example 46, rac-N-[(4-chlorophenyl)(cyano)methyl]-8-[(2,6-difluorobenzyl)oxy]-2,6-dimethylimidazo[1,2-a]pyrazine-3-carboxamide]: the MEC turned out to be 10 µM.

In the case of `Cc1cn2c(C(=O)NNC3CCCC3O)c(C)nc2c(OCc2c(F)cccc2F)n1` (mixture of isomers) [Example 54, 8-[(2,6-difluorobenzyl)oxy]-N′-(2-hydroxycyclopentyl)-2,6-dimethylimidazo[1,2-a]pyrazine-3-carbohydrazide trifluoroacetate (mixture of stereoisomers)], the MEC is 1.0 µM.

For `Cc1cn2c(C(=O)NCCN(C)C)c(C)nc2c(OCc2c(F)cccc2F)n1` [Example 19, 8-[(2,6-difluorobenzyl)oxy]-N-[2-(dimethylamino)ethyl]-2,6-dimethylimidazo[1,2-a]pyrazine-3-carboxamide], the MEC amounted to 3 µM.

As to `Cc1nc2c(OCC3CCC3)nccn2c1C(=O)NCc1ccc(F)c(F)c1` [Example 48, 8-(Cyclobutylmethoxy)-N-(3,4-difluorobenzyl)-2-methylimidazo[1,2-a]pyrazine-3-carboxamide], the MEC was found to be 3.0 µM.

`Cc1cn2c(C(=O)NCC(C)(N)C3CC3)c(C)nc2c(OCc2c(F)cccc2F)n1` (racemic) [Example 20, rac-N-(2-amino-2-cyclopropylpropyl)-8-[(2,6-difluorobenzyl)oxy]-2,6-dimethylimidazo[1,2-a]pyrazine-3-carboxamide]: the MEC turned out to be 3 µM.

For `Cc1cn2c(C(=O)NCc3ncc[nH]3)c(C)nc2c(OCc2c(F)cccc2F)n1` [Example 25, 8-[(2,6-difluorobenzyl)oxy]-N-(1H-imidazol-2-ylmethyl)-2,6-dimethylimidazo[1,2-a]pyrazine-3-carboxamide], the MEC worked out at 3 µM.

`Cc1cn2c(C(=O)NCC(C)(N)CCC(F)(F)F)c(C)nc2c(OCc2c(F)cccc2F)n1` (single isomer, unassigned; enantiomer b) [Example 38, ent-N-(2-Amino-5,5,5-trifluoro-2-methylpentyl)-8-[(2,6-difluorobenzyl)oxy]-2,6-dimethylimidazo[1,2-a]pyrazine-3-carboxamide (enantiomer B)]: the MEC was determined as 0.3 µM.

As for `Cc1cn2c(C(=O)NCc3ccccc3-c3cccnc3)c(C)nc2c(OCc2c(F)cccc2F)n1` [Example 21, 8-[(2,6-difluorobenzyl)oxy]-2,6-dimethyl-N-[2-(pyridin-3-yl)benzyl]imidazo[1,2-a]pyrazine-3-carboxamide], the MEC is 3 µM.

On to `Cc1cn2c(C(=O)NC3(c4ccc(F)c(F)c4)CC3)c(C)nc2c(OCc2c(F)cccc2F)n1` [Example 4, 8-[(2,6-Difluorobenzyl)oxy]-N-[1-(3,4-difluorophenyl)cyclopropyl]-2,6-dimethylimidazo[1,2-a]pyrazine-3-carboxamide], for which the MEC is 1 µM.

Take `CCCC[C@H](CO)NC(=O)c1c(C)nc2c(OCc3c(F)cccc3F)nc(C)cn12` [Example 3, 8-[(2,6-Difluorobenzyl)oxy]-N-[(2R)-1-hydroxyhexan-2-yl]-2,6-dimethylimidazo[1,2-a]pyrazine-3-carboxamide]: the MEC is 3 µM.

For `Cc1cn2c(C(=O)NCCC3(O)CCCC3)c(C)nc2c(OCc2c(F)cccc2F)n1` [Example 12, 8-[(2,6-Difluorobenzyl)oxy]-N-[2-(1-hydroxycyclopentyl)ethyl]-2,6-dimethylimidazo[1,2-a]pyrazine-3-carboxamide], the MEC is 1 µM.

For the compound `Cc1cn2c(C(=O)NNC(=O)CN(C)C)c(C)nc2c(OCc2c(F)cccc2F)n1` [Example 53, 8-[(2,6-difluorobenzyl)oxy]-N′-[(dimethylamino)acetyl]-2,6-dimethylimidazo[1,2-a]pyrazine-3-carbohydrazide], the MEC was determined as 3.0 µM.

Regarding `Cc1cn2c(C(=O)Nc3cnn(CC(F)(F)F)c3)c(C)nc2c(OCc2c(F)cccc2F)n1` [Example 24, 8-[(2,6-difluorobenzyl)oxy]-2,6-dimethyl-N-[1-(2,2,2-trifluoroethyl)-1H-pyrazol-4-yl]imidazo[1,2-a]pyrazine-3-carboxamide], the MEC was determined as 3 µM.

As for `Cc1cn2c(C(=O)NC(C)C#N)c(C)nc2c(OCc2c(F)cccc2F)n1` (racemic) [Example 14, rac-N-(1-cyanoethyl)-8-[(2,6-difluorobenzyl)oxy]-2,6-dimethylimidazo[1,2-a]pyrazine-3-carboxamide], the MEC stood at 3 µM.

In the case of `Cc1cn2c(C(=O)Nc3c(C(F)(F)F)n[nH]c3C)c(C)nc2c(OCc2c(F)cccc2F)n1` [Example 27, 8-[(2,6-difluorobenzyl)oxy]-2,6-dimethyl-N-[5-methyl-3-(trifluoromethyl)-1H-pyrazol-4-yl]imidazo[1,2-a]pyrazine-3-carboxamide], the MEC is 1 µM.

As to `CCC(N)(CC)CNC(=O)c1c(C)nc2c(OCc3c(F)cccc3F)nc(C)cn12` [Example 15, N-(2-amino-2-ethylbutyl)-8-[(2,6-difluorobenzyl)oxy]-2,6-dimethylimidazo[1,2-a]pyrazine-3-carboxamide], the MEC amounted to 1 µM.

For the compound `Cc1cn2c(C(=O)NCCN3CCOCC3)c(C)nc2c(OCc2c(F)cccc2F)n1` [Example 22, 8-[(2,6-difluorobenzyl)oxy]-2,6-dimethyl-N-[2-(morpholin-4-yl)ethyl]imidazo[1,2-a]pyrazine-3-carboxamide], the MEC worked out at 3 µM.

For `Cc1cn2c(C(=O)NCC(C)(N)CCCF)c(C)nc2c(OCc2c(F)cccc2F)n1` (single isomer, unassigned; enantiomer b) [Example 40, ent-N-(2-Amino-5-fluoro-2-methylpentyl)-8-[(2,6-difluorobenzyl)oxy]-2,6-dimethylimidazo[1,2-a]pyrazine-3-carboxamide (enantiomer B)], the MEC amounted to 0.3 µM.

As for `Cc1cn2c(C(=O)NC3c4ccccc4CC3O)c(C)nc2c(OCc2c(F)cccc2F)n1` (stereo not drawn) [Example 13, 8-[(2,6-difluorobenzyl)oxy]-N-(2-hydroxy-2,3-dihydro-1H-inden-1-yl)-2,6-dimethylimidazo[1,2-a]pyrazine-3-carboxamide], the MEC was found to be 3 µM.

As to `Cc1cn2c(C(=O)N[C@H]3CCOC3=O)c(C)nc2c(OCc2c(F)cccc2F)n1` [Example 34, 8-[(2,6-difluorobenzyl)oxy]-2,6-dimethyl-N-[(3S)-2-oxotetrahydrofuran-3-yl]imidazo[1,2-a]pyrazine-3-carboxamide], the MEC came out at 3 µM.
